The values that follow come from patent US20260325520A1, “METHODS FOR TREATING OR PREVENTING NEUROENDOCRINE TUMR FORMATION USING CDC7 INHIBITORS” (Memorial Sloan-Kettering Cancer Center, priority 2022, published 2026).

Common to all, as to type: cell-based
The subject of one assay is SCLC cell lines. The assay can be described thus: Growth inhibition of SCLC cell lines by CDC7 inhibitors, correlation with CDC7 mRNA and protein expression. Particulars: array of SCLC cell lines, Spearman's test. From the text:
FIG. 1A: CDC7 mRNA expression in cell lines derived from different tumor types. The data was obtained from CCLE through UCSC Xenabrowser portal (https://xenabrowser.net/) in December 2020. Lines indicate the median CDC7 mRNA expression in SCLC cell lines. FIG. 1B: CDC7 protein expression assessed by IHC in NSCLC (N=58) and SCLC (N=45) clinical samples. Protein expression is shown as IHC score. H-score medians and standard deviation are shown. FIG. 1C: Western blot showing CDC7 KO in H82 (SCLC-N) and H146 (SCLC-A) SCLC cell lines. Proliferation (FIG. 1D) and soft agar colony formation (FIG. 1E) assays in isogenic H82 and H146 cell lines with CDC7 KO. In FIG. 1D, lower line graphs correspond to CDC7 KO (sgCDC7). FIG. 1F: Ectopic overexpression of CDC7 in H69 (SCLC-A) and DMS114 (SCLC-Y) SCLC cell lines. Proliferation (FIG. 1G) and soft agar colony formation (FIG. 1H) assays in isogenic H69 and DMS114 cell lines with ectopic CDC7 overexpression. […] FIG. 1I: Bivariate correlation of CDC7 mRNA and protein expression with simurosertib or LY3143921 sensitivity (assessed as growth inhibition) in an array of SCLC cell lines. Correlation was calculated with Spearman's test. […]
Cytotoxic assays were performed as described in ^19. […] Viability was assessed with the CellTiter-Glo 2.0 Assay (Promega, G9242) as indicated by manufacturer. […]

The next assay concerns LnCap (PRAD) cells. The assay can be described thus: Viability of control and TP53/RB1-loss LnCap cells treated with simurosertib. Particulars: 0.5 μM; double TP53/RB1 loss versus control. The source says: FIG. 4A: CDC7 mRNA expression in adenocarcinoma clinical specimens, categorized by their TP53/RB1 status. Data obtained from LUAD TCGA (PanCancer), LUAD OncoSG (OncoSG, Nat Genetics 2020) and PRAD TCGA (PanCancer). FIG. 4B: Western blot showing CDC7 protein levels in isogenic H1563 (LUAD) and 22PC (PRAD) cell lines with or without induced loss of function of TP53 and/or RB1 (see methods). FIG. 4C: Plot showing a representative biological replicate of an experiment assessing viability of control and TP53/RB1-loss H1563, 22PC and LnCap (PRAD) cells treated with 0.5 μM simurosertib. Student's t-test was performed to assess statistical significance (two-tailed, assuming heterogeneous value distribution). p-value legend: *<0.05, **<0.01, ***<0.001.
TP53/RB1-deficient PRAD cell lines were generated as previously described^16. TP53/RB1-deficient LUAD cell lines were generated by lentiviral transduction of a construct expressing a dominant negative TP53 isoform and a short hairpin RNA against RB1, produced from the FU-CYW vector that was previously described^18 and kindly shared by Dr. Owen Witte.
Cytotoxic assays were performed as described in ^19. A total of 1,500 cells/well were seeded in 96-well plates and treated with the drugs/doses described for 96 hours. Viability was assessed with the CellTiter-Glo 2.0 Assay (Promega, G9242) as indicated by manufacturer.

The next assay deals with H1563 (LUAD) cells. In words: Viability of control and TP53/RB1-loss H1563 cells treated with simurosertib. Particulars: 0.5 μM; double TP53/RB1 loss versus control or single gene loss. From the text: CDC7 mRNA (FIG. 3A) and protein (FIG. 3B) expression in lung tumor clinical specimens, categorized as control never transformed adenocarcinomas (LUAD), transforming adenocarcinomas (T-LUAD) and small cell carcinomas (T-SCLC) and control de novo small cell carcinomas (SCLC). For FIG. 3B, H-score medians and standard deviation are shown. FIG. 3C: CDC7 mRNA expression in PRAD tumors with or without NE features. Data from Abida et al., PNAS 2019. FIG. 3D: CDC7 protein expression in PRAD and NEPC clinical specimens, as assessed by IHC. H-score medians and standard deviation and representative images (FIG. 3E) are shown. […] FIG. 3G: In vivo treatment of Lx1042 (T-SCLC) and LuCAP49 (NEPC) PDXs was conducted to compare the efficacy of the combination of cisplatin and simurosertib versus that of cisplatin and etoposide. Student's t-test was performed to assess statistical significance (two-tailed, assuming heterogeneous value distribution) p-value legend: *<0.05, **<0.01, ***<0.001. FIG. 3H: CDC7 mRNA expression in adenocarcinoma clinical specimens, categorized by their TP53/RB1 status. Data obtained from LUAD TCGA (PanCancer), LUAD OncoSG (OncoSG, Nat Genetics 2020) and PRAD TCGA (PanCancer). […]
Cytotoxic assays were performed as described in ^19. […] Viability was assessed with the CellTiter-Glo 2.0 Assay (Promega, G9242) as indicated by manufacturer.

With `Cc1n[nH]cc1-c1cc2nc([C@@H]3CC4CCN3CC4)[nH]c(=O)c2s1` [simurosertib], the “sensitivity correlation with CDC7 mRNA and protein expression” value with SCLC cell lines was “correlated with CDC7 mRNA and protein expression”. In addition, the simurosertib sensitivity entry in the assay on LnCap (PRAD) cells and in the assay on H1563 (LUAD) cells was “increased simurosertib sensitivity” each time.
